Source: ChEMBL document CHEMBL3217735, “Polyamine-based small molecule epigenetic modulators” (Medchemcomm, 2012)

Assays:
[1] = biological target: Lysine-specific histone demethylase 1A (Homo sapiens) (UniProt O60341); assay: Inhibition of N-terminal His6-tagged full length human LSD1 expressed in Escherichia coli BL21 (DE3) using H3K4me2 (1 to 21 amino acids) as substrate assessed as production of H2O2 at 1 uM by luminol-dependent chemiluminescence assay relative to control
[2] = biological target: Histone deacetylase (Homo sapiens) (UniProt Q13547+O15379+Q9UBN7+Q92769+Q9UQL6+Q8WUI4+Q9BY41+Q96DB2+P56524+Q9UKV0+Q969S8); assay: Inhibition of HDAC in human HeLa cells using Fluor de Lys as substrate at 1 uM by fluorescence assay relative to control; format: cell-based
MCF7 = assay: Cytotoxicity against human MCF7 cells after 96 hrs by MTA reduction assay; format: functional, cell-based; details: MCF7, 96 h
[3] = Cytotoxicity against human MCF10A cells after 96 hrs by MTA reduction assay; format: ADME, cell-based; details: MCF-10A
[4] = Selectivity ratio of IC50 for human MCF10A cells to IC50 for human MCF7 cells; format: ADME, cell-based, MCF-10A; details: MCF10A cells versus MCF7 cells, read-out: Ratio IC50

For `C/N=C(\NC)NCCCNCCCNCCCN/C(=N/C)NC`, the inhibition [1] was 85.1%.

In the case of `CN(C)c1ccc(CN(CCCNCCCCN)C(=O)CCCCC(=O)NO)cc1`, the inhibition [2] is reported as 60%.

For `Cc1ccc(CNCCCCNCCCCCC(=O)NCc2ccc(C(=O)Nc3ccccc3N)cc2)cc1`, the IC50 (MCF7) was 0.9 µM, the IC50 [3] was 24 µM and the selectivity ratio [4] was over 25.
